Legend:
[1] = AUC(0 to t) in overnight fasted mouse at 5 mg/kg, po or 1 mg/kg, iv; assay type: ADME, organism-based; set-up: dose 5 mg/kg, route po; conditions: in vivo
[2] = tested on: Human immunodeficiency virus 1; test: Antiviral activity against HIV1 NL (4 to 3) harbouring V362I mutant transfected in human HEK293T cells by dual-luciferase reporter assay; assay type: functional, organism-based; conditions: Human immunodeficiency virus 1, HEK-293T
[3] = tested on: Human immunodeficiency virus 1; test: Antiviral activity against HIV1 wild type subtype C NL (4 to 3) transfected in human HEK293T cells by dual-luciferase reporter assay; assay type: functional, organism-based; conditions: Human immunodeficiency virus 1, HEK-293T
[4] = tested on: Human immunodeficiency virus 1; test: Antiviral activity against HIV1 wild type NL (4 to 3) infected in human MT2 cells measured after 4 to 5 days in presence of human serum by dual-luciferase reporter assay; assay type: functional, organism-based; conditions: Human immunodeficiency virus 1, MT2
[5] = AUC(0 to t) in overnight fasted Sprague-Dawley rat at 5 mg/kg, po or 1 mg/kg, iv; assay type: ADME, organism-based; set-up: dose 5 mg/kg, route po; conditions: in vivo
[6] = Cmax in overnight fasted Beagle dog at 2 mg/kg, po or 1 mg/kg, iv; assay type: ADME, organism-based, Canis lupus familiaris; set-up: dose 2 mg/kg, route po; conditions: in vivo
[7] = tested on: Human immunodeficiency virus 1; test: Antiviral activity against HIV1 wild type subtype B NL (4 to 3) harbouring V362/Q369/V370/T371 transfected in human HEK293T cells by dual-luciferase reporter assay; assay type: functional, organism-based; conditions: Human immunodeficiency virus 1, HEK-293T
[8] = Volume of distribution at steady state in overnight fasted Sprague-Dawley rat at 5 mg/kg, po or 1 mg/kg, iv; assay type: ADME, organism-based; conditions: in vivo
[9] = Half life in overnight fasted Beagle dog at 1 mg/kg, iv; assay type: ADME, organism-based, Canis lupus familiaris; conditions: in vivo
[10] = tested on: Human immunodeficiency virus 1; test: Antiviral activity against HIV1 wild type subtype B NL (4 to 3) transfected in human HEK293T cells by dual-luciferase reporter assay; assay type: functional, organism-based; conditions: Human immunodeficiency virus 1, HEK-293T
[11] = tested on: Human immunodeficiency virus 1; test: Antiviral activity against HIV1 harbouring T332S/V362I/prR41G mutant infected in human MT2 cells measured after 4 to 5 days by dual-luciferase reporter assay; assay type: functional, organism-based; conditions: Human immunodeficiency virus 1, MT2
[12] = Volume of distribution at steady state in overnight fasted cynomolgus monkey at 2 mg/kg, po or 1 mg/kg, iv; assay type: ADME, organism-based, Macaca fascicularis; conditions: in vivo
[13] = Volume of distribution at steady state in overnight fasted Beagle dog at 2 mg/kg, po or 1 mg/kg, iv; assay type: ADME, organism-based, Canis lupus familiaris; conditions: in vivo
[14] = tested on: Human immunodeficiency virus 1; test: Binding affinity to HIV1 wild type Gag assessed as dissociation constant by measuring half life
[15] = tested on: Human immunodeficiency virus 1; test: Antiviral activity against HIV1 wild type NL (4 to 3) infected in human MT2 cells measured after 4 to 5 days by dual-luciferase reporter assay; assay type: functional, organism-based; conditions: Human immunodeficiency virus 1, MT2
MT2 = test: Cytotoxicity in human MT2 cells assessed as reduction in cell viability; assay type: functional
[16] = AUC(0 to t) in overnight fasted cynomolgus monkey at 2 mg/kg, po or 1 mg/kg, iv; assay type: ADME, organism-based, Macaca fascicularis; set-up: dose 2 mg/kg, route po; conditions: in vivo
[17] = tested on: Human immunodeficiency virus 1; test: Antiviral activity against HIV in plasma assessed log10 reduction of HIV RNA over 40 mg/kg, po measured after 11 days; assay type: functional; conditions: time 11 day
[18] = tested on: Human immunodeficiency virus 1; test: Antiviral activity against HIV1 harbouring V362I/V370A mutant infected in human MT2 cells measured after 4 to 5 days by dual-luciferase reporter assay; assay type: functional, organism-based; conditions: Human immunodeficiency virus 1, MT2
[19] = Volume of distribution at steady state in overnight fasted mouse at 5 mg/kg, po or 1 mg/kg, iv; assay type: ADME, organism-based; conditions: in vivo
[20] = AUC(0 to t) in overnight fasted Beagle dog at 2 mg/kg, po or 1 mg/kg, iv; assay type: ADME, organism-based, Canis lupus familiaris; set-up: dose 2 mg/kg, route po; conditions: in vivo
[21] = Oral bioavailability in overnight fasted Beagle dog using spray-dried dispersion at 2 mg/kg; assay type: ADME, organism-based, Canis lupus familiaris; conditions: in vivo
[22] = Oral bioavailability in overnight fasted cynomolgus monkey using spray-dried dispersion at 2 mg/kg; assay type: ADME, organism-based, Macaca fascicularis; conditions: in vivo
[23] = tested on: Human immunodeficiency virus 1; test: Antiviral activity against HIV1 virus harboring NL (4 to 3) harbouring […]/V370A mutant transfected in human HEK293T cells by luciferase reporter assay; assay type: functional, organism-based; conditions: Human immunodeficiency virus 1, HEK-293T
[24] = Binding affinity to HIV1 wild type Gag assessed as dissociation constant; set-up: species or system Human immunodeficiency virus 1
[25] = Cmax in overnight fasted cynomolgus monkey at 2 mg/kg, po or 1 mg/kg, iv; assay type: ADME, organism-based, Macaca fascicularis; set-up: dose 2 mg/kg, route po; conditions: in vivo
[26] = tested on: Human immunodeficiency virus 1; test: Antiviral activity against HIV1 harbouring deltaV370/T371A mutant infected in human MT2 cells measured after 4 to 5 days by dual-luciferase reporter assay; assay type: functional, organism-based; conditions: Human immunodeficiency virus 1, MT2
[27] = tested on: Human immunodeficiency virus 1; test: Antiviral activity against HIV1 NL (4 to 3) harbouring V362I/deltaV370 mutant transfected in human HEK293T cells by dual-luciferase reporter assay; assay type: functional, organism-based; conditions: Human immunodeficiency virus 1, HEK-293T
[28] = Solubility of the compound in FeSSIF at pH 5.0; assay type: physicochemical
[29] = Solubility of the compound in FaSSIF at pH 6.5; assay type: physicochemical
[30] = Aqueous solubility of compound at pH 1 to 8; assay type: physicochemical
[31] = AUC in rat at 5 mg/kg, po; assay type: ADME, organism-based; set-up: dose 5 mg/kg, route po; conditions: in vivo, read-out: AUC

Compound: C=C(C)[C@@H]1CC[C@]2(NCCN3CCS(=O)(=O)CC3)CC[C@]3(C)[C@H](CC[C@@H]4[C@@]5(C)CC=C(c6ccc(C(=O)O)cc6)C(C)(C)[C@@H]5CC[C@]43C)[C@@H]12 [BMS-955176]
- AUC(0-t) [1]: 21.6 µM·h
- EC50 [2]: 11.1 nM
- EC50 [3]: 9.1 nM
- EC50 [4]: 10.2 nM
- AUC(0-t) [5]: 14.2 µM·h
- Cmax [6]: 600 nM
- EC50 [7]: 2.8 nM
- Vdss [8]: 1.1 L/kg
- half-life [9]: 31.7 h
- EC50 [10]: 66 nM
- EC50 [11]: 704 nM
- Vdss [12]: 0.43 L/kg
- Vdss [13]: 0.36 L/kg
- T1/2 [14]: 0.717 h
- EC50 [15]: 5 nM
- CC50 (MT2): 13000 nM
- AUC(0-t) [16]: 1 µM·h
- Activity [17]: >1 log10IU/ml
- EC50 [18]: > 3000 nM
- Vdss [19]: 0.82 L/kg
- AUCt [20]: 29.3 µM·h
- F [21]: 9%
- bioavailability [22]: 4%
- EC50 [23]: > 3000 nM
- Kd [24]: 1.4 nM
- Cmax [25]: 100 nM
- EC50 [26]: 6 nM
- EC50 [27]: 1400 nM

Compound: C=C(C)[C@@H]1CC[C@]2(NCCN3CCS(=O)(=O)CC3)CC[C@]3(C)[C@H](CC[C@@H]4[C@@]5(C)CC=C(C6=CC[C@@](CF)(C(=O)O)CC6)C(C)(C)[C@@H]5CC[C@]43C)[C@@H]12
- T1/2 [14]: 5.73 h

Compound: C=C(C)[C@@H]1CC[C@]2(NCCN3CCS(=O)(=O)CC3)CC[C@]3(C)[C@H](CC[C@@H]4[C@@]5(C)CC=C(C6=CC[C@@](CF)(C(=O)O)CC6)C(C)(C)[C@@H]5CC[C@]43C)[C@@H]12.Cl.Cl
- solubility [28]: 800 µg/mL
- solubility [29]: 310 µg/mL
- solubility [30]: < 1 µg/mL

Compound: C=C(C)[C@@H]1CC[C@]2(NCCN3CCC(S(C)(=O)=O)CC3)CC[C@]3(C)[C@H](CC[C@@H]4[C@@]5(C)CC=C(C6=CCC(CCO)(C(=O)O)CC6)C(C)(C)[C@@H]5CC[C@]43C)[C@@H]12 (stereo partly specified)
- EC50 [4]: 154 nM
- AUC [31]: 0.591 µM·h
- EC50 [11]: 10.1 nM
- EC50 [15]: 3 nM
- CC50 (MT2): 4900 nM
- EC50 [18]: 2.2 nM
- EC50 [26]: 3.7 nM

Compound: C=C(C)[C@@H]1CC[C@]2(NCCN3CCC(S(C)(=O)=O)CC3)CC[C@]3(C)[C@H](CC[C@@H]4[C@@]5(C)CC=C(C6=CCC(CCCO)(C(=O)O)CC6)C(C)(C)[C@@H]5CC[C@]43C)[C@@H]12 (stereo partly specified)
- EC50 [4]: 16 nM
- AUC [31]: 4.36 µM·h
- EC50 [11]: 7.9 nM
- EC50 [15]: 2.6 nM
- CC50 (MT2): 12400 nM
- EC50 [18]: 3.2 nM
- EC50 [26]: 2.9 nM

From ChEMBL document CHEMBL5113515, “The Discovery of GSK3640254, a Next-Generation Inhibitor of HIV-1 Maturation” (J Med Chem, 2022)
